Measured values reported in patent publication US5633230A, “Treatment of cytomegalovirus infection” (priority 1994, dated 1997).

Columns and labels:
CMV strain AD-169 = experiment: CPE assay, CMV AD-169 in HFF cells; assay type: cell-based; settings: CMV AD-169, HFF (human foreskin fibroblast), without 24 h drug pretreatment
Text: *CPE assay, all others are plaque reduction assays.

[1] = tested on: ganciclovir-resistant CMV strains 759^r D100 and GDG^r K17 and foscarnet-resistant CMV strains PFA^r D100 and PFA^r B300; settings: range over strains 759^r D100, GDG^r K17, PFA^r D100, PFA^r B300; MRC-5; drug pre- and post-infection
Method: This stock solution was subsequently diluted in cell culture medium to obtain the test concentrations used in the study. Ganciclovir (GCV) was dissolved in sterile, deionized water, and the drug concentration measured spectrophotometrically (7.8mM). Foscarnet (phosphonoformic acid, PFA) was dissolved in sterile, deionized water to a final concentration of 100 mM. Aliquots of the stock solutions were stored at -70° C.
Drug-resistant human CMV strains 759^r D100, GDG^r K17, PFA^r D100 and PFA^r B300 were obtained from Dr. Donald M. Coen, Harvard Medical School, Boston, Mass.
The drug stock solutions were diluted with fresh culture medium to obtain the desired test concentrations in the range 0.5-2500 μM.
MRC-5 cells (4-5×10^5 per well) were grown for 24 hours at 37° C. in 5% CO2 atmosphere in D-MEM/F-12FBS medium containing varying concentrations of drug. At the end of the pre-treatment period, the cells were infected with a suspension containing 50 plaque forming units of CMV (MOI=0.0001). The virus was allowed to absorb for 60 minutes at 37° C. in the absence of drug, at which time the virus innoculum was washed away, and the cells fed with fresh growth medium containing drug. […] Vital plaques were counted under a microscope after removing the culture medium from the wells, staining the cells with 1.1% Crystal Violet solution, and washing twice with tap water. […]

[2] = tested on: Smith strain of murine CMV; experiment: murine CMV infection in cyclophosphamide-immunosuppressed mice; assay type: in vivo, BALB/c mice; settings: for Surv/Total / Mean Day to Death ± S.D.: infected mice
Text: This immunosuppression model mimics the human patient situation, wherein the HCMV-induced disease in immunosuppressed individuals can often be fatal. The particular model used for evaluating potential antiviral activity has been described by Smee et al in J. Infect. Dis., 1991, 164: 958.
The Smith strain of murine CMV, obtained originally from the American Type Culture Collection (Rockville, Md.) was used. A mouse salivary gland preparation was used for the virus pool. An inoculation of 2×10^4 plaque forming units of the virus was used in the antiviral study. Female BALB/c mice weighing 10-12 g were quarantined 24 hr prior to use, and maintained on Wayne Lab Blox and tap water ad libitum the duration of the study.
Ganciclovir (DHPG) was purchased from a commercial source, and cyclophosphamide was purchased from Sigma Chemical Co. (St. Louis, Mo.).
To determine tissue virus titre, homogenates of infected mouse organs were titrated for virus using C127/I cells in 96-well microplates. Each tissue sample was homogenized and titrated separately with 3 micro wells used per dilution; plates were read by microscopic examination for viral-induced cytopathic effect, with 50% end points determined by the Reed-Muench method. Mean viral titers were expressed at 50% cell culture infectious doses (CCID50)/gram of tissue.
For statistical evaluation, increases in mean day to death and reductions in viral titers were assessed using the two-tailed Mann-Whitney U test. Total survivor increases were evaluated by chi square analysis with Yates'.

[3] = 0.2 mg/kg/day i.p. every other day, day 9
[4] = 0.2 mg/kg/day i.p. every other day, 9 days after virus challenge
[5] = 0.1 mg/kg/day i.p., daily days -2 through +10
[6] = 0.7 mg/kg/day i.p., days -2,0,+2,+4,+6,+8,+10
[7] = 2.0 mg/kg/day i.p., days -2,0,+2,+4,+6,+8,+10

Compound: CC(=O)N[C@H](CCCNC(=N)N)C(=O)N[C@H](CCCNC(=N)N)C(=O)N[C@H](CCCNC(=N)N)C(=O)N[C@H](CCCNC(=N)N)C(=O)N[C@H](CCCNC(=N)N)C(=O)N[C@H](CCCNC(=N)N)C(=O)N[C@H](CCCNC(=N)N)C(=O)N[C@H](CCCNC(=N)N)C(=O)N[C@H](CCCNC(=N)N)C(N)=O [AV-9, acetyl-[D-Arg]9 -NH2]
- IC50 (CMV strain AD-169): 5.8 µM
- IC50 [1]: 1.3 to 2.1 µM
- animals without detectable virus in lungs [2, 3]: one had no detectable virus
- animals without detectable virus in spleen, of the five sampled [2, 3]: three had no detectable virus
- effect on salivary gland virus titers [2, 3]: No effect
- reduction of mean lung virus titer compared to placebo-treated controls [2, 3]: 0.6 log10
- Tissue Virus Titer ± S.D., Lung [2, 4]: 3.3 ± 1.9 log10 CCID50/g
- Tissue Virus Titer ± S.D., Salivary Gland [2, 4]: 7.6 ± 1.2 log10 CCID50/g
- Tissue Virus Titer ± S.D., Spleen [2, 4]: 1.5 ± 2.26 log10 CCID50/g
- Surv/Total ([2]; 0.07 mg/kg/day i.p., days -2,0,+2,+4,+6,+8,+10): 0/8
- Mean Day to Death ± S.D. ([2]; 0.07 mg/kg/day i.p., days -2,0,+2,+4,+6,+8,+10, P<0.05 vs saline): 13.4 ± 2.6 days
- Mean Day to Death ± S.D. [2, 5]: 11.3 ± 0.5 days
- Surv/Total [2, 5]: 0/8
- Surv/Total ([2]; 0.2 mg/kg/day i.p., days -2,0,+2,+4,+6,+8,+10): 0/8
- Mean Day to Death ± S.D. ([2]; 0.2 mg/kg/day i.p., days -2,0,+2,+4,+6,+8,+10, P<0.01 vs saline): 18.5 ± 3.7 days
- Mean Day to Death ± S.D. [2, 6]: 11.6 ± 1.6 days
- Surv/Total [2, 6]: 0/7
- Mean Day to Death ± S.D. [2, 7]: 12.1 ± 1.3 days
- Surv/Total [2, 7]: 0/7
